We go through 5 compounds from paper PMC8404199, “Structure–Activity Relationships of Triple-Action Platinum(IV) Prodrugs with Albumin-Binding Properties and Immunomodulating Ligands” (Journal of Medicinal Chemistry, 2021).

Where two headings read alike, the source gives them in different places. Where only a bound is given, the exact number is not on record here.

Data set [1] relates to murine CT26 colon cancer cells. The data set is described as follows: MTT cytotoxicity assay in CT26 cells. Format: cell-based. The procedure: (§1) Cells were additionally incubated with 5-fold equimolar concentrations of ascorbic acid to increase the reduction rate of the compounds. Cell viability was measured by the MTT-based vitality assay (EZ4U; Biomedica, Vienna, Austria), following the manufacturer’s recommendations.

Data set [2] relates to human HCT116 colon cancer cells. The data set is described as follows: MTT cytotoxicity assay in HCT116 cells. The class given is cell-based. As to the method:
as §1
In general terms: Tetrazolium dyes change colour on reduction, which living cells bring about.

In data set [3] the test system is human embryonic kidney cells (HEK293). Briefly: MTT cytotoxicity assay in non-malignant HEK293 cells. The class given is cell-based. To be noted: 72 h. The procedure:
(§2) The cells were seeded at 3500–6000 cells/well in 96-well plates depending on the proliferation rate of the respective cell line and allowed to recover for 24 h. Subsequently, the cells were treated at indicated concentrations for 48 or 72 h. Cells were additionally incubated with 5-fold equimolar concentrations of ascorbic acid to increase the reduction rate of the compounds. Cell viability was measured by the MTT-based vitality assay (EZ4U; Biomedica, Vienna, Austria), following the manufacturer’s recommendations.

The test system of data set [4] is human hepatic cell line (WRL68). The data set is described as follows: MTT cytotoxicity assay in non-malignant WRL68 cells. Format: cell-based. The note with it: 72 h. The procedure: as §2
Data set [5] deals with VM7 melanoma cancer cells. Briefly: MTT cytotoxicity assay in VM7 cells. To be noted: 72 h. The class given is cell-based, human. As to the method:
as §2

Data set [6] deals with CT26 colon cancer allografts. The data set is described as follows: Anticancer activity against CT26 allografts in Balb/c mice. The class given is in vivo. The note with it: iv, equimolar to 9 mg/kg oxaliplatin; for anticancer activity against CT26 tumors (in words): twice a week for 2 weeks. As to the method: Every day, the animals were monitored for body weight and the enhanced stress level, and the tumor size was measured using a caliper according to the formula length × width^2/2.

Data set [7] is described as follows: Organ distribution of platinum in SKOV3-bearing SCID mice. To be noted: 24 h after single iv dose equimolar to 9 mg/kg oxaliplatin.
Protocol: For tissue digestion, approx. 25–50 mg of tissue was weighed into perfluoralkoxy tubes, and 2 mL of HNO3 and 100 μL H2O2 (30%, Suprapur, Merck, Darmstadt, Germany) were added. The solutions were placed on a hot plate and heated up for 7 h using a temperature program with a maximum of 200 °C. The liquids were transferred to 15 mL tubes with the remaining solution being removed by washing twice with 4 mL of ultrapure water.
Platinum concentrations were measured using an Agilent 7800 ICP-QMS instrument (Agilent Technologies, Tokyo, Japan) equipped with an Agilent SPS 4 autosampler (Agilent Technologies, Tokyo, Japan) and a MicroMist nebulizer at a sample uptake rate of approx. 0.2 mL/min. […] All of the measured samples were blank corrected (for the cell culture data, wells containing no cells were used). Elemental standard solutions were purchased from Labkings (Hilversum, The Netherlands). The instrument was tuned on a daily basis.
SKOV3 cells (1.5 × 10^6 cells in 50 μL serum-free medium) were injected subcutaneously into the right flank of male SCID mice. […] Then, the animals were sacrificed by cervical dislocation, and tumors and organs were collected for the measurement with ICP–MS. For plasma isolation, blood was collected in ethylenediaminetetraacetic acid (EDTA)-coated tubes and centrifuged for 10 min at 900g at 4 °C. Plasma was transferred to a new tube and centrifuged once more to remove residual red blood cells.
The next data set concerns human SKOV3 cancer cells. Briefly: MTT cytotoxicity assay in SKOV3 cells. The note with it: 72 h incubation. The class given is cell-based. As to the method: as §2
The next data set concerns SKOV3 cancer cells. The data set is described as follows: Long-term cytotoxicity assay (crystal violet) in SKOV3 cells. The class given is cell-based, human. To be noted: 168 h, crystal violet stain, mean ± SD. As to the method:
SKOV3 cells were seeded in duplicates at 5000 cells/well in 24-well plates and allowed to recover for 24 h. Subsequently, the cells were treated at the indicated concentrations for 168 h. Cells were fixed with ice-cold methanol (20 min at 4 °C), washed with PBS, and stained with crystal violet. Subsequently, colony formation was inspected, and the fluorescence signal was detected using Typhoon Trio imager (GE Healthcare, Little Chalfont, UK) at 610/30 nm BP and analyzed by ImageJ software.

Data set [8] in a line: log D7.4 determination by shake flask method and ICP-MS. The class given is physicochemical. The note with it: n-octanol/phosphate buffer pH 7.4, Pt by ICP-MS. As to the method: 50 mM stock solutions of the succinimide complexes in DMF were diluted in phosphate buffer (20 mM, pH 7.4, pre-saturated with n-octanol) to a final concentration of 50 μM drug and 0.1% DMF. The platinum content of these aqueous solutions was measured by ICP–MS (see above). The solutions were mixed 1:1 with n-octanol and shaken on a 360° rotatable rack for 3 h. The solutions were centrifuged for 5 min (860g, RT), the aqueous layers were carefully removed, and their Pt content was measured by ICP–MS. Experiments were performed and measured in duplicates, and averages were used for further calculations. log D7.4 values were calculated by the following equation [drawing 1]

The nature of data set [9]: UHPLC reduction experiments with L-ascorbic acid. The class given is physicochemical. The note with it: 1 mM complex, 10-fold excess AA, phosphate buffer pH 7.4, 1% DMF, 20 °C. As to the method: The platinum(IV)–succinimide complexes were dissolved in 2% DMF in phosphate buffer (500 mM, pH 7.4) to a final concentration of 2 mM. The solutions were then mixed 1:1 with a 20 mM stock of L-ascorbic acid in phosphate buffer (500 mM, pH 7.4) to obtain final concentrations of 1 mM complex, 10 mM L-ascorbic acid, and 1% DMF. The samples were incubated at 20 °C and measured on a Dionex UltiMate 3000 RS UPLC system with a Waters Acquity UPLC BEH C18 column (3 × 50 mm, pore size 1.7 μm) and absorption detection at 220 nm. Data points were taken at t = 0 and every 30 min for 6 h.

The target of a further data set is T1, albumin (Bos taurus, UniProt P02769).
T1 construct: FCS was purchased from Sigma-Aldrich and buffered with 150 mM phosphate buffer (pH 7.4); tissue Sigma-Aldrich; host or cells: fetal calf serum
T1 sequence (P02769 25-607): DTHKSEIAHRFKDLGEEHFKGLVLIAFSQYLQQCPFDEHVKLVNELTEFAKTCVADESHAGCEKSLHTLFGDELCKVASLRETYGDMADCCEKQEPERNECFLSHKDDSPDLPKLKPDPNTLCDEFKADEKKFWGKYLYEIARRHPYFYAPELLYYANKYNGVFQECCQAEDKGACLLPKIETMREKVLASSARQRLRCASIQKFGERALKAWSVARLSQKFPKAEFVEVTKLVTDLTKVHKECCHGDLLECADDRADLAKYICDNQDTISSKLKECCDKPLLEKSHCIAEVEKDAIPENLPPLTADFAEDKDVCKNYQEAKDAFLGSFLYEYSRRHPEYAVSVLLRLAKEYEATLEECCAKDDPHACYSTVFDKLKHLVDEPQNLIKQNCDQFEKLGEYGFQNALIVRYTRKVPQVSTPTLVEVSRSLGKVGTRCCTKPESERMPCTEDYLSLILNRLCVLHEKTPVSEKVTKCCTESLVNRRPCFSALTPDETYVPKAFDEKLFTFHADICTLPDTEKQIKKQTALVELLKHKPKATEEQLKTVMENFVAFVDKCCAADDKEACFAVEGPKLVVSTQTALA
Briefly: SEC-ICP-MS albumin binding and serum stability in fetal calf serum. The class given is in vitro ADME. To be noted: FCS + 150 mM phosphate buffer pH 7.4, 37 °C. As to the method: FCS was purchased from Sigma-Aldrich and buffered with 150 mM phosphate buffer (pH 7.4) to guarantee a stable pH. The maleimide-bearing platinum(IV) complexes were dissolved in 10% DMF in 150 mM phosphate buffer (pH 7.4) to 1 mM and diluted 1:10 in serum to obtain a final concentration of 100 μM. The samples were then incubated in the autosampler at 37 °C for 24 h and analyzed every 1 h. Between each sample, a pure water blank was measured. For SEC–ICP–MS measurements, an Agilent 1260 Infinity system coupled to an Agilent 7800 ICP–MS equipped with a dynamic reaction cell was used. Oxygen (purity 5.5, Messer Austria GmbH, Gumpoldskirchen, Austria) was used as reaction gas.

In another data set the test system is SKOV3 cell lysates. Briefly: Reduction and 1-MDT release in SKOV3 lysates. Format: in vitro ADME, human. The note with it: 100 μM, 37 °C. The procedure: SKOV3 cells were grown in four T225 […] cell culture flasks to reach a high cell number. On the day of cell lysate isolation, cells were washed with PBS, scraped from the surface, and centrifuged. Each cell pellet was lysed in ∼160 μL lysis buffer (15 mM NaCl 0.5% Triton X, ultrapure) and incubated on ice for 1 h. The samples were then centrifuged for 15 min at 14,000 rpm (4 °C), and the cleared lysate was pooled and kept at −80 °C until analysis. Cell lysates were treated with 2 mM stock solutions of respective complexes in 4% DMF and phosphate buffer (100 mM, pH 7.4) to obtain a final compound concentration of 100 μM and incubated at 37 °C. After 0, 4, 24, and 72 h, three volume equivalents of cold MeOH were added to sample aliquots. Samples were stored at 4 °C for 10 min and centrifuged (15,080g, 4 °C, 10 min). LC–MS analysis of the supernatant was performed on an Agilent 1260 Infinity system using a Waters Atlantis T3 column (150 mm × 4.6 mm) and absorption detection at 230 nm, coupled to a Bruker amaZon SL ESI-IT mass spectrometer. Milli-Q water, containing 0.1% formic acid, and acetonitrile, containing 0.1% formic acid, were used as eluents. A gradient of 1–99% acetonitrile in 20 min was used.

The mark [10] stands for this setting: 48 h incubation, with 5 equiv AA, read-out: CT26 IC50 values +AA, mean ± SD.
Where [11] appears, read: 48 h incubation, without AA, read-out: CT26 IC50 values, mean ± SD.
Setting [12] is: 72 h incubation, with 5 eq. AA, read-out: CT26 IC50 values + 5 eq. AA, mean.
[13] abbreviates: 72 h incubation, without AA, read-out: CT26 IC50 values, mean.
Setting [14] is: 48 h incubation, with 5 equiv AA, read-out: HCT116 IC50 values +AA, mean ± SD.
The mark [15] stands for this setting: 48 h incubation, without AA, read-out: HCT116 IC50 values, mean ± SD.
The mark [16] stands for this setting: 72 h incubation, with 5 eq. AA, read-out: HCT116 IC50 values + 5 eq. AA, mean.
Setting [17] is: 72 h incubation, without AA, read-out: HCT116 IC50 values, mean.
The mark [18] stands for this setting: with 5 eq. AA, read-out: SKOV3 IC50 values + 5 eq. AA, mean.
The mark [19] stands for this setting: without AA, read-out: SKOV3 IC50 values, mean.

With `CC(=O)[O][Pt]1([O]C(C)=O)[O]C(=O)C(=O)[O]1.N[C@@H]1CCCC[C@H]1N` [OAc/OAc, reference compound], the IC50 came to 22.6 ± 0.16 µM in [1] (setting [10]); 25.7 ± 1.4 µM in data set [1] (setting [11]); 33.5 µM in data set [1] (setting [12]); 42.3 µM in [1] (setting [13]); 20.1 ± 1.57 µM in data set [2] (setting [14]); 26.6 ± 2.41 µM in [2] (setting [15]). Besides, the IC50 was found to be 11.5 µM in [2] (setting [16]); 14.3 µM in data set [2] (setting [17]); 12.2 µM in data set [3]; 33.6 µM in data set [4]; 43.5 µM in data set [5].

For the compound `Cn1cc(C[C@@H](NC(=O)[O][Pt]2([O]C(=O)NCCCCCN3C(=O)C=CC3=O)[O]C(=O)C(=O)[O]2)C(=O)O)c2ccccc21.N[C@@H]1CCCC[C@H]1N` [MalCa/IdoCa, (OC-6-24)-[(R)-(1-Carboxy-2-(1-methyl-1H-indol-3-yl)ethyl)carbamato][(1R,2R)-1,2-cyclohexanediamino][5-(2,5-dioxo-2,5-dihydro-1H-pyrrol-1-yl)pentylcarbamato]oxalatoplatinum(IV)], in data set [6], the “activity directly compared to oxaliplatin: tumor growth and overall survival” value is “superior to oxaliplatin”; the “anticancer activity against CT26 tumors (in words)” value is listed as “significant anticancer activity”. The “platinum levels in blood plasma” value in data set [7] turned out to be 6.4 mg/kg. Besides, in [7] (ratio of mean platinum levels), the “Platinum ratio tumor:kidney” value is listed as 0.5 and the “Platinum ratio tumor:liver” value amounted to 0.5.

As to `Cn1cc(CC(NC(=O)[O][Pt]23([O]C(=O)NCCCCCN4C(=O)CCC4=O)([NH]C4CCCCC4[NH]2)[O]C(=O)C(=O)[O]3)C(=O)O)c2ccccc21` [SucCa/IdoCa, (OC-6-24)-[(R)-(1-Carboxy-2-(1-methyl-1H-indol-3-yl)ethyl)carbamato][(1R,2R)-1,2-cyclohexanediamino][(5-(2,5-dioxopyrrolidin-1-yl)pentyl)carbamato]oxalatoplatinum(IV)], the “ratio (IC50 without AA / with AA), CT26” value is not below 2.6 in data set [1] (48 h) and 1.89 in [1] (72 h). Also, the IC50 was 38.8 ± 3.84 µM in data set [1] (setting [10]); more than 100 µM in data set [1] (setting [11]); 43.6 µM in data set [1] (setting [12]); 82.5 µM in [1] (setting [13]); 43.3 ± 2.1 µM in data set [2] (setting [14]); more than 100 µM in data set [2] (setting [15]). Moreover, the IC50 in [2] (setting [16]) was 24.7 µM; in data set [3], 81.2 µM; in data set [4], more than 100 µM; with human SKOV3 cancer cells (setting [18]) it was more than 100 µM; in the data set with human SKOV3 cancer cells (setting [19]), more than 100 µM; in data set [5] it was more than 100 µM. In addition, inhibition with SKOV3 cancer cells was half-maximal at 54.6 ± 14.1 µM (IC50). In addition, the “ratio (IC50 without AA / with AA), HCT116” value in data set [2] (48 h) was not below 2.3; in data set [2] (72 h), not below 4. In addition, in [8], the “log D7.4” value is “–1.49”. Also, the “complex intact after 6 h” value in [9] was determined as 90%. Besides, the “albumin binding in serum (in words)” value on albumin is “significant binding to albumin (tR ~4 min) could be observed for any of the compounds”. In addition, the “still present as platinum(IV) species after 72 h” value with SKOV3 cell lysates is recorded as approximately 50%.

With `CC(=O)[O][Pt]1([O]C(=O)NCCCCCN2C(=O)CCC2=O)[O]C(=O)C(=O)[O]1.N[C@@H]1CCCC[C@H]1N` [SucCa/OAc, (OC-6-34)-Acetato[(1R,2R)-1,2-cyclohexanediamine]oxalato[(5-(2,5-dioxopyrrolidin-1-yl)pentyl)carbamato]platinum(IV)], the results for the “ratio (IC50 without AA / with AA), CT26” value in data set [1] (48 h) and in data set [1] (72 h) were 2.67 and 1.37, respectively. The IC50 in data set [1] (setting [10]) is 28.2 ± 1.81 µM; in data set [1] (setting [11]) it was 75.21 ± 0.11 µM; in data set [1] (setting [12]), 40.4 µM; in [1] (setting [13]), 55.2 µM; in data set [2] (setting [14]) it was 34 ± 1.58 µM; in data set [2] (setting [15]), more than 100 µM. Moreover, the IC50 in data set [2] (setting [16]) was 21.8 µM; in data set [2] (setting [17]), 42 µM; in data set [3], 50.8 µM; in data set [4], more than 100 µM; in the data set on human SKOV3 cancer cells (setting [18]), more than 100 µM; in the data set on human SKOV3 cancer cells (setting [19]) it was more than 100 µM. Further, the half-maximal inhibitory concentration (IC50) in data set [5] is more than 100 µM; in the data set with SKOV3 cancer cells, 29.7 ± 0.3 µM. The results for the “ratio (IC50 without AA / with AA), HCT116” value in [2] (48 h) and in data set [2] (72 h) were not below 2.9 and 1.93, respectively.

With `Cn1cc(CC([NH3+])C(=O)[O][Pt]23([O]C(=O)CCCCCN4C(=O)C=CC4=O)([NH]C4CCCCC4[NH]2)[O]C(=O)C(=O)[O]3)c2ccccc21.O=C([O-])C(F)(F)F` [MalEs/IdoEs, (OC-6-44)-[(R)-2-Ammonio-3-(1-methyl-1H-indol-3-yl)propanoato][(1R,2R)-1,2-yclohexanediamino][6-(2,5-dioxo-2,5-dihydro-1H-pyrrol-1-yl)hexanoato]oxalatoplatinum(IV) Trifluoroacetate], the “anticancer activity against CT26 tumors (in words)” value in [6] is “inactive”. The “platinum levels in blood plasma” value in data set [7] is 3.7 mg/kg.

The IC50 is the midpoint of a concentration-inhibition curve.
